Laboratory results taken from US20180066031A1, “ENZYMATICALLY-CLEAVABLE PEPTIDE AMPHIPHILES” (The University of Chicago, priority 2016, published 2018).

Molecular target: T1, Recombinant human liver cathepsin-B (Homo sapiens, UniProt P07858)
T1 construct: purchased Sigma Aldrich
Test: Cathepsin-B cleavage testing of peptide-AMC substrates
Assay type: biochemical
Settings: for AMC fluorescence intensity change over time following addition of catB: 1 mM peptide in activation buffer pH 5, emission 440 nm
Description: Peptide-AMC: Recombinant human liver cathepsin-B (Sigma Aldrich) was used for the in vitro experiments. 0.25 μM DTT used in 0.25 μM HEPES in PBS (pH 5) as activation buffer. Peptides were dissolved in activation buffer to a final concentration as 1 mM. 0.5 μL of catB enzyme or vehicle control was added into the peptide solution. Plate reader analysis with Tecan Infinite M200 PRO plate reader (Mannedorf, Switzerland) with triplicates of each sample were performed in 96 well plates. The intensity of the excited dye at 388 nm was measured at 440 nm. Dual dye-labeled peptide on resin: CatB and activation buffer were prepared as described above. Dye-labeled peptides were again left on the resin. Resin was washed with methanol, dried in a vacuum overnight, and then immersed in PBS (pH 7.4) for 1 hour at 37° C. PBS was then drained followed by addition of 1 mL activation buffer and 5 μL of catB for 100 mg of resin. Control testing was performed in the same solution without the addition of catB. Supernatant was collected after 3 hours and 24 hours. The florescence intensity of triplicates of each sample was measured with plate reader FAM (λexc=485 nm, λem=535 nm) and Tamra (λexc=520 nm, λem=620 nm).
A variety of enzyme-cleavable peptide sequences used in antibody-drug and peptide-drug conjugates were tested for efficacy in the systems herein (Ref. B35, B40-B43; incorporated by reference in their entireties).
The experimentally cleavable VC-PABA sequence and a control, non-cleavable triple glycine (GGG) linker, were conjugated to a 7-amino-4-methylcoumarin (AMC) dye, useful in studying protease activity and specificity (VC-PABA-AMC and GGG-AMC) (FIGS. 9A and 9B) (Ref. B45; incorporated by reference in its entirety). The electron group of the AMC fluorophore is localized, and thus remains quenched, when linked to the VC-PABA or GGG peptide substrate. When the covalent bond between the peptide and AMC is cleaved, this group de-localizes resulting in fluorescence detected at 440 nm (excitation: 348 nm) allowing for real-time measurement of enzyme/substrate kinetics. […]

Glycine-Glycine-Glycine (GGG)-AMC [GGG-AMC, reference compound]
AMC fluorescence intensity change over time following addition of catB: Neither GGG-AMC or GG-PABA-AMC showed any change in fluorophore intensity

Valine-Citrulline-Para(aminobenzoicacid) (VC-PABA)-AMC [VC-PABA-AMC]
AMC fluorescence intensity change over time following addition of catB: rapidly increased

valine-citrulline [VC]
catB cleavage efficacy among tested enzyme-cleavable peptide sequences (comparison of linker sequences): fastest and most complete cleavage
